Measurements taken from patent publication US5089623A, “Certain imidate insecticides” (Imperial Chemical Industries Plc, priority 1990, dated 1992).

Key:
Type in all cases: in vivo
[1] = tested on: Housefly [Musca domestica]; assay: Housefly insecticidal test (HF); conditions: per 25 female houseflies, 48 hours
[2] = tested on: Maize weevil [Sitophilus Zeamais (Motschulsky)]; assay: Maize weevil test (MW); conditions: adult weevils, treated corn seeds, 48 hours, percent in solution
Procedure, shortened: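 Adult weevils (10) were placed with four corn seeds that had been dipped 2-3 s in compound dissolved in 50:50 acetone:water, then dried, and held at about 25° C. Mortality was scored at 48 h. LC50 was taken from dosage-mortality curves and expressed as percent compound in solution, from a 0.01% top concentration.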

[3] = tested on: Tobacco Budworm [Heliothis virescens (Fabricius)] eggs; assay: Tobacco budworm egg test (TBW-E); conditions: percent in solution
[4] = tested on: Aster Leafhopper [Macrosteles fascifrens (Stal)]; assay: Aster leafhopper test (LH); conditions: adults/nymphs, 48 hours, percent in solution
[5] = tested on: Rice water weevil [Lissorhoptrus oryzophilus (Kuschel)]; assay: Rice water weevil test (RWW); conditions: per weevil, topical, female adults, 48 hours
Protocol: The compounds in Tables 1 and 2 above were tested for insecticidal activity using the following testing procedures. LC50 values, based on the results of these tests and calculated according to dosage-mortality curves, are expressed in Table 3.
Rice water weevil [Lissorhoptrus oryzophilus (Kuschel)]
Test compounds were diluted in acetone. Droplets (1 ul) of test solutions were applied to the ventral abdomens of ten female adult weevils. The treated weevils were placed in containers with wet cotton balls and rice foliage. The containers were covered and kept at a temperature of about 25° C. Mortality was recorded after 48 hours. […] The LC50 values are expressed below in Table 3 under the heading "RWW" in terms of μg of test compound per weevil.

[6] = tested on: Cabbage Looper [Trichoplusia ni (Hubner)]; assay: Cabbage looper test (CL); conditions: second-instar larvae, 3-5 days, percent in solution
[7] = tested on: Beet Armyworm (Spodoptera exigua); assay: Beet armyworm test (BAW); conditions: second-instar larvae, five days, percent in solution
Procedure, shortened: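 Sugar beet leaves were dipped 2-3 s in compound diluted in 50-50 acetone-water, dried, then infested with five second-instar larvae in humid dishes. Mortality was scored after five days at concentrations from 0.1% downward. LC50 was taken from dosage-mortality curves as percent compound in solution.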

[8] = tested on: Tobacco Budworm [Heliothis virescens (Fabricius)]; assay: Tobacco budworm contact test (TBW-C); conditions: second-instar larvae, 5 days, percent in solution
Procedure, shortened: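 Cotton cotyledons dipped 2–3 s in compound in 50:50 acetone–water, dried, then infested with 5 second-instar larvae and held 5 days at high humidity before scoring mortality.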

Structure (SMILES)	LC50 HF [1] [µg]	LC50 MW [2] [%]	LC50 TBW E [3] [%]	LC50 LH [4] [%]	LC50 RWW [5] [µg]	LC50 CL [6] [%]	LC50 BAW [7] [%]	LC50 TBW C [8] [%]
CC(C)C(=Nc1c(F)c(F)c(F)c(F)c1F)OCc1cccc(Oc2ccc(F)cc2)c1 [Compound 198]	52	0.003	> 0.1	0.05	> 2.5	0.0005	–	–
CC(C)C(=Nc1ccc(Br)c(Cl)c1)OCc1cccc(Oc2ccc(Cl)cc2)c1 [Compound 380]	> 100	> 0.01	> 0.1	–	> 2.5	> 0.1	–	–
CC(C)C(=Nc1ccc(Br)c(Cl)c1)OCc1ccc(F)c(Oc2ccc(Cl)cc2)c1 [Compound 381]	< 100	> 0.01	0.018	–	> 2.5	0.00092	–	–
CC(C)C(=Nc1ccc(F)c(Br)c1)OCc1cccc(Oc2ccccc2)c1 [Compound 254]	6	–	0.026	–	> 2.5	0.001	–	–
Fc1ccc(N=C(OCc2cccc(Oc3ccccc3)c2)C2CC2)cc1Cl [Compound 113]	15	–	0.1	–	> 2.5	0.005	–	–
CCC(=Nc1ccc(F)c(Cl)c1)OCc1cccc(Oc2ccccc2)c1 [Compound 85]	7	> 0.01	> 0.1	0.003	> 2.5	0.004	–	–
CC(C)C(=Nc1ccc(Br)c(Cl)c1)OCc1ccc(F)c(Oc2ccc(F)cc2)c1 [Compound 382]	< 100	> 0.01	0.027	–	> 2.5	0.00029	–	–
CC(C)C(=Nc1ccc(F)c(Cl)c1)OCc1cccc(Oc2ccc(F)cc2)c1F [Compound 262]	26	0.005	> 0.1	–	> 2.5	0.0004	–	–
CC(C)C(=Nc1ccc(F)c(Cl)c1)OCc1cc(Oc2ccc(F)cc2)ccc1F [Compound 230]	36	0.038	0.1	–	> 2.5	0.0004	–	–
CCOc1ccc(N=C(OCc2ccc(F)c(Oc3ccccc3)c2)C(C)C)cc1Cl [Compound 370]	< 100	> 0.01	0.02	–	> 2.5	0.00034	–	–
CC(C)C(=Nc1cccc(Br)c1)OCc1ccc(F)c(Oc2ccccc2)c1 [Compound 387]	< 100	> 0.01	0.05	–	> 2.5	0.0012	–	–
CC(C)C(=Nc1ccc(C(F)(F)F)cc1)OCc1cccc(Oc2ccccc2)c1 [Compound 68]	37	> 0.01	0.009	0.0001	0.15	0.006	–	–
CC(C)C(=Nc1ccc(C(F)(F)F)c(Br)c1)OCc1ccc(F)c(Oc2ccc(Cl)cc2)c1 [Compound 433]	< 100	0.005	0.02	–	0.078	0.00017	–	–
CCOc1ccc(N=C(OCc2ccc(F)c(Oc3ccc(Cl)cc3)c2)C(C)C)cc1Cl [Compound 369]	> 100	> 0.01	> 0.1	–	> 2.5	0.0016	–	–
C=C(C)C(=Nc1ccc(C(F)(F)F)cc1)OCc1ccc(F)c(Oc2ccccc2)c1 [Compound 431]	9.8	0.0037	0.025	–	0.084	0.00017	–	–
CC(C)C(=Nc1ccc(C(F)(F)F)cc1)OCc1ccc(F)c(Oc2ccc(F)cc2)c1 [Compound 314]	21	–	0.012	–	0.11	0.00005	–	–
CC(C)C(=Nc1ccc(C(F)(F)F)c(Br)c1)OCc1ccc(F)c(Oc2ccc(Cl)cc2)c1 [Compound 377]	< 100	> 0.01	> 0.1	–	> 2.5	0.00062	–	–
CC(C)(F)C(=Nc1ccc(F)c(Cl)c1)OCc1ccc(F)c(Oc2ccc(F)cc2)c1 [Compound 310]	4.5	–	0.015	–	> 2.5	0.00006	–	–
CC(C)C(=Nc1ccc(Cl)c(OCC(F)(F)F)c1)OCc1ccc(F)c(Oc2ccc(Cl)cc2)c1 [Compound 452]	> 100	> 0.01	< 0.1	–	0.1	0.0017	–	–
CC(C)C(=Nc1ccc(Br)cc1)OCc1ccc(F)c(Oc2ccc(Cl)cc2)c1 [Compound 378]	< 100	> 0.01	0.02	–	> 2.5	0.00034	–	–
CC(C)C(=Nc1ccc(F)c(Cl)c1)OCc1cccc(Oc2cccc(F)c2)c1 [Compound 125]	12	> 0.01	0.025	> 0.05	> 2.5	0.0007	–	–
CC(C)C(=Nc1ccc(Cl)c(Cl)c1)OCc1ccc(F)c(Oc2ccccc2)c1 [Compound 376]	17	0.0061	0.02	–	0.1	0.00037	–	–
CC(C)C(=Nc1ccc(Cl)cc1)OCc1ccc(F)c(Oc2ccc(Cl)cc2)c1 [Compound 391]	< 100	–	0.035	–	> 2.5	0.00029	–	–
CC(C)C(=Nc1ccc(Cl)c(Cl)c1)OCc1ccc(F)c(Oc2ccc(F)cc2)c1 [Compound 289]	10	> 0.01	0.006	0.0003	0.082	0.00007	–	–
CC(C)C(=Nc1cccc(F)c1)OCc1ccc(F)c(Oc2ccc(Cl)cc2)c1 [Compound 375]	7.9	> 0.01	0.04	–	> 2.5	> 0.1	–	–
Clc1cccc(N=C(OCc2cccc(Oc3ccccc3)c2)C(Cl)Cl)c1 [Compound 1]	4.8	> 0.01	0.05	> 0.05	–	0.005	0.009	0.06
